The record followed here is patent US20150232420A1, “TRANSGLUTAMINASE TG2 INHIBITORS, PHARMACEUTICAL COMPOSITIONS, AND METHODS OF USE THEREOF” (priority 2012, published 2015).

Each structure is given as a SMILES string.

The IC50 is the point on the concentration scale where inhibition reaches its midpoint.

For the test, the target named is T1, human TG2 (Homo sapiens, UniProt P21980).
T1 sequence (P21980 1-687): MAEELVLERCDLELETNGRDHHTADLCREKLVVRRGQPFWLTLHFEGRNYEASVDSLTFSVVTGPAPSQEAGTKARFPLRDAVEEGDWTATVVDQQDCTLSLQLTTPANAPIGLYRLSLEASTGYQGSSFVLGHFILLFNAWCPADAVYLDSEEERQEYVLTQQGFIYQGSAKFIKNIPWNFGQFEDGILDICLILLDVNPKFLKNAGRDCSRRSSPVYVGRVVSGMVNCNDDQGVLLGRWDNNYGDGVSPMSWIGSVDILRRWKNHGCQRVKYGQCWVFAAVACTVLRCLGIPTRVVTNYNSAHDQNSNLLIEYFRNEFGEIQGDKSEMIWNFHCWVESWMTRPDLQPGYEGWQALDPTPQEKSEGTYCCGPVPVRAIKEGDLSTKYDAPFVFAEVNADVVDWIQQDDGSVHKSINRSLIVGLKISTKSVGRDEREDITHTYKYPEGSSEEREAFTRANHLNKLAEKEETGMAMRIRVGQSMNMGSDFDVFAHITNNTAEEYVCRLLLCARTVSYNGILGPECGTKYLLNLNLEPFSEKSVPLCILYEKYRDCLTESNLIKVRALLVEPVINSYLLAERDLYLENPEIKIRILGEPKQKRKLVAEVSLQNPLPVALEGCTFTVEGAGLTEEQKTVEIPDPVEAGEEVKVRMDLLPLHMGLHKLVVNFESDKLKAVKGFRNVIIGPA
Put plainly: fluorescent screening assay for human TG2. The note with it: Table 7; 20 nM TG2, 37° C.; read-out: IC50. The format is biochemical. The protocol:
The fluorescent screening assay for human TG2 was performed as described herein: Assay conditions were 20 nM TG2, 8 μM N,N-dimethylated Casein (NMC) and 16 μM K×D (used for all transglutaminase assays) in 25 mM Hepes, pH 7.4, 250 mM NaCl, 2 mM MgCl2, 0.5 mM CaCl2, 0.2 mM DTT, 0.05% Pluronic F-127 at 37° C. A time point was taken with a microplate reader (Safire or Ultra, Tecan; ex: 350 nm, em: 535 nm) every 3 minutes for up to 2 hours and the initial linear reaction progress was used to determine the reaction velocity as a measure for enzyme activity. Assay conditions were identical for human TG6 and similar for human TG1 and mouse TG2 apart from enzyme concentration (mTG2 at 5 nM; TG1 at 10 nM) and CaCl2 concentration (0.2 mM for mTG2; 0.05 mM for TG1). Factor XIIIa was activated using 0.1 μg/μl thrombin (Sigma) in 35 mM Tris pH 8.0 for 20 min at 30° C. and the transamidation reaction was performed with 20 nM Factor XIIIa in 50 mM Tris pH 8.0, 1.25 mM CaCl2, 0.05% Pluronic, 0.2 mM DTT. TG3 was activated with 0.02 μg/μl thrombin under the same conditions as Factor XIIIa and assay conditions were 10 nM TG3 in 50 mM Hepes, pH 8, 20 mM CaCl2, 0.2 mM DTT, 0.05% Pluronic F-127.
Turning to `C=CC(=O)NCCCC[C@H](NC(=O)OCc1ccc(C(F)(F)F)cc1)C(=O)O` [(2S)-6-(prop-2-enamido)-2-[({[4-(trifluoromethyl)phenyl]methoxy}carbonyl)amino]hexanoic acid], the concentration for half-maximal inhibition (IC50) lay in the range of 1 to 100 µM.

Turning to `C=CC(=O)NCCCC[C@H](NC(=O)OCc1ccccc1C(F)(F)F)C(=O)O` [(2S)-6-(prop-2-enamido)-2-[({[2-(trifluoromethyl)phenyl]methoxy}carbonyl)amino]hexanoic acid], the concentration for half-maximal inhibition (IC50) lay in the range of 1 to 100 µM.

`C=CC(=O)NCCCC[C@H](NC(=O)OCc1ccccc1)C(=O)N1CCN(c2cccc(C)n2)CC1` [benzyl N-[(2S)-1-[4-(6-methylpyridin-2-yl)piperazin-1-yl]-1-oxo-6-(prop-2-enamido)hexan-2-yl]carbamate]: the IC50 is less than 0.1 µM.

Consider `C=CC(=O)NCCCC[C@H](NC(=O)OCc1cccc2ccccc12)C(=O)O` [(2S)-2-{[(naphthalen-1-ylmethoxy)carbonyl]amino}-6-(prop-2-enamido)hexanoic acid], for which the IC50 is 1 to 100 µM.

For `C=CC(=O)NCCCC[C@H](NC(=O)OCc1ccccc1)C(=O)N1CCN(C)CC1` [benzyl N-[(2S)-1-(4-methylpiperazin-1-yl)-1-oxo-6-(prop-2-enamido)hexan-2-yl]carbamate], the IC50 is 0.1 to 1 µM.

Regarding `C=CC(=O)NCCCC[C@H](NC(=O)OCc1ccc(F)cc1Cl)C(=O)O` [(2S)-2-({[(2-chloro-4-fluorophenyl)methoxy]carbonyl}amino)-6-(prop-2-enamido)hexanoic acid], the IC50 lay in the range of 1 to 100 µM.

Take `C=CC(=O)NCCCC[C@H](NC(=O)OC(C)(C)C)C(=O)N1CCN(c2cccc(C)n2)CC1` [tert-butyl N-[(2S)-1-[4-(6-methylpyridin-2-yl)piperazin-1-yl]-1-oxo-6-(prop-2-enamido)hexan-2-yl]carbamate]: the concentration for half-maximal inhibition (IC50) fell in the range of 0.1 to 1 µM.

Consider `C=CC(=O)NCCCC[C@H](NC(=O)OCc1ccccc1)C(=O)N1CCCC1` [benzyl N-[(2S)-1-oxo-6-(prop-2-enamido)-1-(pyrrolidin-1-yl)hexan-2-yl]carbamate], for which the half-maximal inhibitory concentration (IC50) was in the range of 0.1 to 1 µM.

Consider `C=CC(=O)NCCCC[C@H](NC(=O)c1ccccc1)C(=O)N1CCN(c2cccc(C)n2)CC1` [N-[(5S)-6-[4-(6-methylpyridin-2-yl)piperazin-1-yl]-6-oxo-5-(phenylformamido)hexyl]prop-2-enamide], for which the IC50 fell in the range of 0.1 to 1 µM.

As for `C=CC(=O)NCCCC[C@H](NC(=O)OCc1ccccc1)C(=O)N1CCN(C(=O)C2CCOCC2)CC1` [benzyl N-[(2S)-1-[4-(oxane-4-carbonyl)piperazin-1-yl]-1-oxo-6-(prop-2-enamido)hexan-2-yl]carbamate], the IC50 fell in the range of 0.1 to 1 µM.

As to `C=CC(=O)NCCCC[C@H](NC(=O)OCc1ccccc1)C(=O)N1CCN(C(=O)C2CC2)CC1` [benzyl N-[(2S)-1-(4-cyclopropanecarbonylpiperazin-1-yl)-1-oxo-6-(prop-2-enamido)hexan-2-yl]carbamate], the half-inhibitory concentration (IC50) lay in the range of 0.1 to 1 µM.

On to `C=CC(=O)NCCCC[C@H](NC(=O)OCc1cccc(C(F)(F)F)c1)C(=O)O` [(2S)-6-(prop-2-enamido)-2-[({[3-(trifluoromethyl)phenyl]methoxy}carbonyl)amino]hexanoic acid], for which the IC50 lay in the range of 1 to 100 µM.

`C=CC(=O)NCCCC[C@H](NC(=O)OCc1ccccc1)C(=O)N1CCN(C(=O)OC(C)(C)C)CC1` [tert-butyl 4-[(2S)-2-{[(benzyloxy)carbonyl]amino}-6-(prop-2-enamido)hexanoyl]piperazine-1-carboxylate]: the IC50 was in the range of 0.1 to 1 µM.

Regarding `C=CC(=O)NCCCC[C@H](NC(=O)OCc1ccccc1)C(=O)N1CCN(C(=O)N2CCOCC2)CC1` [benzyl N-[(2S)-1-[4-(morpholine-4-carbonyl)piperazin-1-yl]-1-oxo-6-(prop-2-enamido)hexan-2-yl]carbamate], the half-inhibitory concentration (IC50) lay within 0.1 to 1 µM.

Turning to `C=CC(=O)NCCCC[C@H](NC(=O)OCc1ccccc1)C(=O)N1CCC(F)(F)CC1` [benzyl N-[(2S)-1-(4,4-difluoropiperidin-1-yl)-1-oxo-6-(prop-2-enamido)hexan-2-yl]carbamate], the half-inhibitory concentration (IC50) is 0.1 to 1 µM.

For the compound `C=CC(=O)NCCCC[C@H](NC(=O)OCc1ccccc1)C(=O)N1CCN(c2nccs2)CC1` [benzyl N-[(2S)-1-oxo-6-(prop-2-enamido)-1-[4-(1,3-thiazol-2-yl)piperazin-1-yl]hexan-2-yl]carbamate], the 50% inhibitory concentration (IC50) lay in the range of 0.1 to 1 µM.

For the compound `C=CC(=O)NCCCC[C@H](NC(=O)OCc1ccccc1)C(=O)N(C)C` [benzyl N-[(1S)-1-(dimethylcarbamoyl)-5-(prop-2-enamido)pentyl]carbamate], the concentration for half-maximal inhibition (IC50) fell in the range of 1 to 100 µM.
